In patent US7998979B2, “Antibacterial quinoline derivatives” (Janssen Pharmaceutical N.V., priority 2006, dated 2011):
Values after ≈ are worked out from the molar mass of the structure shown.

Legend:
[1] = tested on: Staphylococcus aureus (ATCC29213); assay: IC90 determination, microtitre plate assay, STA 29213; type: cell-based; details: 90% inhibitory concentration for bacterial growth, 37° C.; for IC90 (μg/ml) STA B29213: 24 hours; for IC90: Staphylococcus aureus, ATCC29213, 24 h, read-out: IC90 (μg/ml) STA B29213
Procedure: (§1) D.3. In-Vitro Method for Testing Compounds for Anti-Bacterial Activity Against Various Non-Mycobacterial Strains
(§2) Preparation of Bacterial Suspensions for Susceptibility Testing:
(§3) The bacteria used in this study were grown overnight in flasks containing 100 ml Mueller-Hinton Broth (Becton Dickinson—cat. no. 275730) in sterile de-ionized water, with shaking, at 37° C. Stocks (0.5 ml/tube) were stored at −70° C. until use. Bacteria titrations were performed in microtiter plates to detect the TCID50, in which the TCID50 represents the dilution that gives rise to bacterial growth in 50% of inoculated cultures.
(§4) In general, an inoculum level of approximately 100 TCID50 was used for susceptibility testing.
(§5) Anti Bacterial Susceptibility Testing: IC90 Determination
(§6) Flat-bottom, sterile 96-well plastic microtiter plates were filled with 180 μl of sterile deionized water, supplemented with 0.25% BSA. Subsequently, stock solutions (7.8×final test concentration) of compounds were added in 45 μl volumes in column 2 Serial five-fold dilutions (45 μl in 180 μl) were made directly in the microtiter plates from column 2 to reach column 11. Untreated control samples with (column 1) and without (column 12) inoculum were included in each microtiter plate. Depending on the bacteria type, approximately 10 to 60 CFU per well of bacteria inoculum (100 TCID50), in a volume of 100 μl in 2.8×Mueller-Hinton broth medium, was added to the rows A to H, except column 12. The same volume of broth medium without inoculum was added to column 12 in row A to H. The cultures were incubated at 37° C. for 24 hours under a normal atmosphere (incubator with open air valve and continuous ventilation). At the end of incubation, one day after inoculation, the bacterial growth was quantitated fluorometrically. Therefore resazurin (0.6 mg/ml) was added in a volume of 20 μl to all wells 3 hours after inoculation, and the plates were re-incubated overnight. A change in colour from blue to pink indicated the growth of bacteria. The fluorescence was read in a computer-controlled fluorometer (Cytofluor Biosearch) at an excitation wavelength of 530 nm and an emission wavelength of 590 nm. The % growth inhibition achieved by the compounds was calculated according to standard methods.

[2] = tested on: Escherichia coli (ATCC35218); assay: IC90 determination, microtitre plate assay, ECO 35218; type: cell-based; details: 90% inhibitory concentration for bacterial growth, 24 hours, 37° C., read-out: IC90 (μg/ml) ECO 35218
Procedure: as §1, §2, §3, §4, §5
(§7) Flat-bottom, sterile 96-well plastic microtiter plates were filled with 180 μl of sterile deionized water, supplemented with 0.25% BSA. […] At the end of incubation, one day after inoculation, the bacterial growth was quantitated fluorometrically. […] The fluorescence was read in a computer-controlled fluorometer (Cytofluor Biosearch) at an excitation wavelength of 530 nm and an emission wavelength of 590 nm. The % growth inhibition achieved by the compounds was calculated according to standard methods.

[3] = tested on: Enterococcus faecalis (ATCC29212); assay: IC90 determination, microtitre plate assay, EFA 29212; type: cell-based; details: 90% inhibitory concentration for bacterial growth, 24 hours, 37° C., read-out: IC90 (μg/ml) EFA 29212
Procedure: as §1, §2, §3, §4, §5, §7

[4] = tested on: Pseudomonas aeruginosa (ATCC27853); assay: IC90 determination, microtitre plate assay, PAE 27853; type: cell-based; details: 90% inhibitory concentration for bacterial growth, 24 hours, 37° C., read-out: IC90 (μg/ml) PAE 27853
Procedure: as §1, §2, §3, §4, §5, §7

[5] = tested on: Streptococcus pneumoniae (ATCC6305); assay: IC90 determination, microtitre plate assay, SPN 6305; type: cell-based; details: 90% inhibitory concentration for bacterial growth, 37° C.; for IC90: Streptococcus pneumoniae, ATCC6305, 24 h, read-out: IC90 (μg/ml) SPN 6305; for IC90 (μg/ml) SPN 6305: 24 hours
Procedure: as §1, §2, §3, §4, §5, §6

[6] = tested on: M. Smegmatis (ATCC607); assay: In-vitro anti-bacterial activity against strain M. Smegmatis ATCC607; type: cell-based; details: 90% inhibitory concentration for bacterial growth, 37° C.; for IC90 (μg/ml) MSM 607: 48 hours; for IC90: Mycolicibacterium smegmatis, ATCC607, 48 h, read-out: IC90 (μg/ml) MSM 607
Procedure: D.2. In-Vitro Method for Testing Compounds for Anti-Bacterial Activity Against Strain M. Smegmatis ATCC607
Flat-bottom, sterile 96-well plastic microtiter plates were filled with 180 μl of sterile deionized water, supplemented with 0.25% BSA. Subsequently, stock solutions (7.8×final test concentration) of compounds were added in 45 μl volumes to a series of duplicate wells in column 2 so as to allow evaluation of their effects on bacterial growth. Serial five-fold dilutions (45 μl in 180 μl) were made directly in the microtiter plates from column 2 to 11 using a customised robot system (Zymark Corp., Hopkinton, Mass.). Pipette tips were changed after every 3 dilutions to minimize pipetting errors with high hydrophobic compounds. Untreated control samples with (column 1) and without (column 12) inoculum were included in each microtiter plate. Approximately 250 CFU per well of bacteria inoculum, in a volume of 100 μl in 2.8×Mueller-Hinton broth medium, was added to the rows A to H, except column 12. The same volume of broth medium without inoculum was added to column 12 in row A to H. The cultures were incubated at 37° C. for 48 hours in a humidified 5% CO2 atmosphere (incubator with open air valve and continuous ventilation). At the end of incubation, two days after inoculation, the bacterial growth was quantitated fluorometrically. Therefore Alamar Blue (10×) was added to all wells in a volume of 20 μl and plates were incubated for another 2 hours at […]
The fluorescence was read in a computer-controlled fluorometer (Cytofluor, Biosearch) at an excitation wavelength of 530 nm and an emission wavelength of 590 nm (gain 30).

[7] = tested on: Streptococcus pyogens (ATCC8668); assay: IC90 determination, microtitre plate assay, SPY 8668; type: cell-based; details: 90% inhibitory concentration for bacterial growth, 24 hours, 37° C., read-out: IC90 (μg/ml) SPY 8668
Procedure: as §1, §2, §3, §4, §5, §7

[8] = tested on: methicilline resistant Staphylococcus aureus (MRSA) (a clinical isolate from the University of Antwerp); assay: IC90 determination, microtitre plate assay, STA RMETH; type: cell-based; details: 90% inhibitory concentration for bacterial growth, 37° C.; for IC90: Staphylococcus aureus, MRSA, 24 h, read-out: IC90 (μg/ml) STA RMETHIC
Procedure: as §1, §2, §3, §4, §5
as §6, with “Therefore resazurin (0.6 mg/ml) was added in a volume of 20 μl to all wells 3 hours after inoculation, and the plates were re-incubated overnight. A change in colour from blue to pink indicated the growth of bacteria.” left out

SMILES | IC90 (μg/ml) STA B29213 [1] [µg/mL] | melting point [°C] | IC90 (μg/ml) SPN 6305 [5] [µg/mL] | IC90 [1] [µg/mL] | IC90 (μg/ml) MSM 607 [6] [µg/mL] | IC90 [6] [µg/mL] | further results
CCN(CC)CCSCC(O)(c1ccccc1)C(c1ccccc1)c1cc2cc(Br)ccc2nc1OC (single isomer, unassigned) [Compound 5] |  |  | 2.31 (≈ 3.99 µM) | 58 (≈ 100 µM) | 2.06 (≈ 3.55 µM) |  | 
CCN(CC)CCSCC(O)(c1ccccc1)C(c1ccccc1)c1cc2cc(Br)ccc2nc1OC (single isomer, unassigned) [Compound 6] | 51.66 (≈ 89.1 µM) | 148 | 23.07 (≈ 39.8 µM) |  | 10.31 (≈ 17.8 µM) |  | 
CCN(CC)CCCSCC(O)(c1ccccc1)C(c1ccccc1)c1cc2cc(Br)ccc2nc1OC (single isomer, unassigned) [Compound 7] | 9.41 (≈ 15.9 µM) | 104 | 2.65 (≈ 4.46 µM) |  | 1.88 (≈ 3.17 µM) |  | 
COc1nc2ccc(Br)cc2cc1C(c1ccccc1)C(O)(CN(C)CCN(C)C)c1ccccc1 (single isomer, unassigned) [Compound 13] |  | 128 |  | 43.6 (≈ 79.4 µM) |  | 8.69 (≈ 15.8 µM) | 
COc1nc2ccc(Br)cc2cc1C(c1ccccc1)C(O)(CN(C)CCN(C)C)c1ccccc1 (single isomer, unassigned) [Compound 14] | 54.85 (≈ 100 µM) |  |  |  | 8.69 (≈ 15.8 µM) |  | 
COc1nc2ccc(Br)cc2cc1C(c1ccccc1)C(O)(CN(CCN(C)C)Cc1ccccc1)c1ccccc1 (stereo not shown) [Compound 15] | 62.46 (≈ 100 µM) |  | 62.46 (≈ 100 µM) |  | 62.46 (≈ 100 µM) |  | 
COc1nc2ccc(Br)cc2cc1C(c1ccccc1)C(O)(CN(CCN(C)C)Cc1ccccc1)c1ccccc1 (stereo not shown) [Compound 16] |  |  |  | 62.5 (≈ 100 µM) |  | 55.7 (≈ 89.1 µM) | IC90 [5]: 62.5 µg/mL (≈ 100 µM)

Continued, in another order:

IC90 (μg/ml) STA B29213 [1] [µg/mL] | melting point [°C] | IC90 (μg/ml) SPN 6305 [5] [µg/mL] | IC90 [1] [µg/mL] | SMILES | IC90 (μg/ml) MSM 607 [6] [µg/mL] | IC90 [6] [µg/mL] | further results
8.74 (≈ 15.8 µM) | 175 |  |  | COc1nc2ccc(Br)cc2cc1C(c1ccccc1)C(O)(CSCCN(C)C)c1ccccc1 (single isomer, unassigned) [Compound 1] | 6.94 (≈ 12.6 µM) |  | IC90 [2]: 55.2 µg/mL (≈ 100 µM); IC90 [3]: 19.6 µg/mL (≈ 35.5 µM); IC90 [4]: 22 µg/mL (≈ 39.8 µM); IC90 [5]: 4.92 µg/mL (≈ 8.92 µM); IC90 [7]: 49.2 µg/mL (≈ 89.1 µM)
21.96 (≈ 39.8 µM) |  | 8.74 (≈ 15.8 µM) |  | COc1nc2ccc(Br)cc2cc1C(c1ccccc1)C(O)(CSCCN(C)C)c1ccccc1 (single isomer, unassigned) [Compound 2] | 2.46 (≈ 4.46 µM) |  | 
6.35 (≈ 11.2 µM) |  | 2.01 (≈ 3.55 µM) |  | COc1nc2ccc(Br)cc2cc1C(c1ccccc1)C(O)(CSCCCN(C)C)c1ccccc1 (single isomer, unassigned) [Compound 3] | 1.79 (≈ 3.16 µM) |  | IC90 [8]: 11.3 µg/mL (≈ 19.9 µM); IC90 [2]: 14.2 µg/mL (≈ 25.1 µM); IC90 [3]: 11.3 µg/mL (≈ 19.9 µM); IC90 [4]: 11.3 µg/mL (≈ 19.9 µM); IC90 [7]: 7.99 µg/mL (≈ 14.1 µM)
 | 136 | 10.06 (≈ 17.8 µM) | 7.99 (≈ 14.1 µM) | COc1nc2ccc(Br)cc2cc1C(c1ccccc1)C(O)(CSCCCN(C)C)c1ccccc1 (single isomer, unassigned) [Compound 4] |  | 2.01 (≈ 3.55 µM) | 
1.88 (≈ 3.17 µM) |  |  |  | CCN(CC)CCCSCC(O)(c1ccccc1)C(c1ccccc1)c1cc2cc(Br)ccc2nc1OC (single isomer, unassigned) [Compound 8] |  | 1.88 (≈ 3.17 µM) | IC90 [5]: 2.36 µg/mL (≈ 3.98 µM)
60.56 (≈ 100 µM) | 158 | 60.56 (≈ 100 µM) |  | COc1nc2ccc(Br)cc2cc1C(c1ccccc1)C(O)(CSCCCN1CCCCC1)c1ccccc1 (single isomer, unassigned) [Compound 9] | 48.11 (≈ 79.4 µM) |  | 
4.81 (≈ 7.94 µM) |  | 2.15 (≈ 3.55 µM) |  | COc1nc2ccc(Br)cc2cc1C(c1ccccc1)C(O)(CSCCCN1CCCCC1)c1ccccc1 (single isomer, unassigned) [Compound 10] | 1.92 (≈ 3.17 µM) |  | 
4.93 (≈ 7.94 µM) | 136 | 1.96 (≈ 3.16 µM) |  | COc1nc2ccc(Br)cc2cc1C(c1ccccc1)C(O)(CSCCCN1CCN(C)CC1)c1ccccc1 (single isomer, unassigned) [Compound 11] | 1.96 (≈ 3.16 µM) |  | IC90 (μg/ml) STA RMETHIC ([8]; 24 hours): 12.38 µg/mL (≈ 19.9 µM)
 |  |  | 4.39 (≈ 7.07 µM) | COc1nc2ccc(Br)cc2cc1C(c1ccccc1)C(O)(CSCCCN1CCN(C)CC1)c1ccccc1 (single isomer, unassigned) [Compound 12] |  | 2.2 (≈ 3.54 µM) | IC90 [8]: 13.9 µg/mL (≈ 22.4 µM); IC90 [5]: 2.2 µg/mL (≈ 3.54 µM)
